Measured values: ChEMBL document CHEMBL3044873, “Aryl N, N-Dimethylcarbamates, Synergists for Organophosphorus Insecticides against Organophos-phorusresistant Rice Stem Borers” (J Pestic Sci, 1990)

Columns and labels:
[1] = system: Chilo suppressalis; experiment: Potentiation of pirimiphos-methyl-induced insecticidal activity against OP-resistant Chilo suppressalis Hata-f (rice stem borer) assessed as synergistic ratio at 1:10 pirimiphos-methyl to compound ratio relative to pirimiphos-methyl alone; format: functional
[2] = system: Chilo suppressalis; experiment: Inhibition of fenitrothion-detoxification activities by hydrolysis in OP-resistant Chilo suppressalis Hata-f (rice stem borer); format: organism-based; conditions: read-out: I50
[3] = system: fenitrothion-detoxification activity by hydrolysis; experiment: Inhibition of fenitrothion-detoxification activities by hydrolysis in OP-resistant Chilo suppressalis Hata-f (rice stem borer) at 1x10'-4M (reference value: 0%); format: organism-based; conditions: probe fenitrothion
[4] = system: fenitrothion-detoxification activity by hydrolysis; experiment: Inhibition of fenitrothion-detoxification activities by hydrolysis in OP-resistant Chilo suppressalis Hata-f (rice stem borer) at 1x10'-5M (reference value: 0%); format: organism-based; conditions: probe fenitrothion
[5] = system: fenitrothion-detoxification activity by hydrolysis; experiment: Inhibition of fenitrothion-detoxification activities by hydrolysis in OP-resistant Chilo suppressalis Hata-f (rice stem borer) at 1x10'-6M (reference value: 0%); format: organism-based; conditions: probe fenitrothion
[6] = system: fenitrothion-detoxification activity by hydrolysis; experiment: Inhibition of fenitrothion-detoxification activities by hydrolysis in OP-resistant Chilo suppressalis Hata-f (rice stem borer) at 1x10'-7M (reference value: 0%); format: organism-based; conditions: probe fenitrothion
[7] = system: Chilo suppressalis; experiment: Inhibition of fenitrothion-detoxification activities by binding protein in OP-resistant Chilo suppressalis Hata-f (rice stem borer); format: organism-based; conditions: read-out: I50
[8] = system: fenitrothion-detoxification activity by binding protein; experiment: Inhibition of fenitrothion-detoxification activities by binding protein in OP-resistant Chilo suppressalis Hata-f (rice stem borer) at 1x10'-4M (reference value: 0%); format: organism-based; conditions: in vivo, probe fenitrothion
[9] = system: fenitrothion-detoxification activity by binding protein; experiment: Inhibition of fenitrothion-detoxification activities by binding protein in OP-resistant Chilo suppressalis Hata-f (rice stem borer) at 1x10'-5M (reference value: 0%); format: organism-based; conditions: in vivo, probe fenitrothion
[10] = system: fenitrothion-detoxification activity by binding protein; experiment: Inhibition of fenitrothion-detoxification activities by binding protein in OP-resistant Chilo suppressalis Hata-f (rice stem borer) at 1x10'-6M (reference value: 0%); format: organism-based; conditions: in vivo, probe fenitrothion
[11] = system: fenitrothion-detoxification activity by binding protein; experiment: Inhibition of fenitrothion-detoxification activities by binding protein in OP-resistant Chilo suppressalis Hata-f (rice stem borer) at 1x10'-7M (reference value: 0%); format: organism-based; conditions: in vivo, probe fenitrothion
[12] = system: Chilo suppressalis; experiment: Potentiation of fenitrothion-induced insecticidal activity against OP-susceptible Chilo suppressalis (rice stem borer) S strain assessed as synergistic ratio at 1:10 fenitrothion to compound ratio relative to fenitrothion alone; format: functional
[13] = system: Chilo suppressalis; experiment: Potentiation of pirimiphos-methyl-induced insecticidal activity against OP-resistant Chilo suppressalis Hata-f (rice stem borer) assessed as synergistic ratio at 1:5 pirimiphos-methyl to compound ratio relative to pirimiphos-methyl alone; format: functional
[14] = system: Chilo suppressalis; experiment: Potentiation of pirimiphos-methyl-induced insecticidal activity against OP-resistant Chilo suppressalis Hata-f (rice stem borer) assessed as synergistic ratio at 1:1 pirimiphos-methyl to compound ratio relative to pirimiphos-methyl alone; format: functional
[15] = system: Chilo suppressalis; experiment: Potentiation of fenitrothion-induced insecticidal activity against OP-resistant Chilo suppressalis Hata-f (rice stem borer) assessed as synergistic ratio at 1:10 fenitrothion to compound ratio relative to fenitrothion alone; format: functional
[16] = system: Chilo suppressalis; experiment: Resistance ratio, LC50 for OP-resistance Chilo suppressalis Hata-f (rice stem borer) to OP-susceptible Chilo suppressalis S (rice stem borer) strain; format: functional
[17] = system: Chilo suppressalis; experiment: Insecticidal activity against OP-resistance Chilo suppressalis Hata-f (rice stem borer) assessed as mortality measured after 24 hr; format: functional
[18] = system: Chilo suppressalis; experiment: Insecticidal activity against OP-susceptible Chilo suppressalis S (rice stem borer) strain assessed as mortality measured after 24 hr; format: functional

Row | Structure (SMILES) | fold change (FC) [1] | fold change (FC) [12] | fold change (FC) [13] | fold change (FC) [14] | fold change (FC) [15] | RatioLC50 [16] | LD50 [17] [mg/kg] | LD50 [18] [mg/kg] | further results
1 | Cc1cc(OC(=O)N(C)C)nc(N(C)C)n1 | 1061 | 1 | 751 | 234 | 38 | – | – | – | IC50 [2]: 4.5 µM; inhibition at 100 µM [3]: 78%; inhibition at 10 µM [4]: 66.7%; inhibition at 1 µM [5]: 22.2%; inhibition at 0.1 µM [6]: 0%; IC50 [7]: 3.3 µM; inhibition at 100 µM [8]: 78.4%; inhibition at 10 µM [9]: 75%; inhibition at 1 µM [10]: 19.3%; inhibition at 0.1 µM [11]: 0%
2 | COP(=O)(OC)Oc1ccc([N+](=O)[O-])c(C)c1 [FENITROXON] | – | – | – | – | – | 23 | 27 | 1.2 | –
3 | CCN(CC)c1nc(C)cc(OP(=S)(OC)OC)n1 [PIRIMIPHOS METHYL] | – | – | – | – | – | 1202 | 1800 | 1.5 | –
4 | CSc1ccc(OC(=O)N(C)C)cc1C | 231 | 0.9 | 188 | 72 | 22 | – | – | – | –
5 | COP(=S)(OC)Oc1ccc([N+](=O)[O-])c(C)c1 [FENITROTHION] | – | – | – | – | – | 38 | 69 | 1.8 | –
